Measurements taken from the CheMixHub viscosity set.

Assay: xn = mol fraction of the nth substance listed

C=CCn1cc[n+](C)c1.O=S(=O)([N-]S(=O)(=O)C(F)(F)F)C(F)(F)F + CCCO
Conditions	viscosity [mPa·s]
313.15 K, 100 kPa, x1 = 0.8974	15.85

CC(=O)N(C)C + CCCO
viscosity [mPa·s]
Conditions	298.15 K	303.15 K	313.15 K
100 kPa, x1 = 0.0535	1.767	–	1.29
100 kPa, x1 = 0.1052	1.618	–	1.206
100 kPa, x1 = 0.2053	1.423	–	1.093
100 kPa, x1 = 0.3066	1.285	–	1.008
100 kPa, x1 = 0.407	1.197	–	0.948
100 kPa, x1 = 0.5061	1.143	–	0.904
100 kPa, x1 = 0.5984	1.097	–	0.8744
100 kPa, x1 = 0.701	1.045	–	0.8402
100 kPa, x1 = 0.8014	0.9977	–	0.8138
100 kPa, x1 = 0.9025	0.9648	–	0.7886
100 kPa, x1 = 0.9583	0.944	–	0.7749
101 kPa, x1 = 0.0966	–	1.47	–
101 kPa, x1 = 0.1975	–	1.293	–
101 kPa, x1 = 0.2992	–	1.193	–
101 kPa, x1 = 0.3986	–	1.103	–
101 kPa, x1 = 0.4894	–	1.048	–
101 kPa, x1 = 0.6025	–	1	–
101 kPa, x1 = 0.697	–	0.963	–
101 kPa, x1 = 0.7955	–	0.93	–
101 kPa, x1 = 0.9012	–	0.898	–

CC(=O)N1CCOCC1 + CCCO
viscosity [mPa·s], 101 kPa
Conditions	293.15 K	303.15 K	313.15 K	323.15 K
x1 = 0.0542	3.211	2.607	2.089	1.678
x1 = 0.1279	4.268	3.591	2.958	2.472
x1 = 0.2156	5.382	4.614	3.842	3.268
x1 = 0.2811	6.079	5.246	4.369	3.728
x1 = 0.3166	6.397	5.529	4.598	3.925
x1 = 0.3902	6.922	5.978	4.928	4.183
x1 = 0.4533	7.294	6.294	5.142	4.331
x1 = 0.5022	7.478	6.414	5.189	4.331
x1 = 0.5437	7.679	6.578	5.289	4.388
x1 = 0.5983	7.857	6.703	5.329	4.375
x1 = 0.6341	7.889	6.699	5.267	4.277
x1 = 0.6883	8.018	6.776	5.259	4.214
x1 = 0.7442	8.069	6.769	5.161	4.062
x1 = 0.7912	8.099	6.748	5.069	3.922
x1 = 0.8542	8.178	6.766	4.986	3.776
x1 = 0.9165	8.328	6.851	4.972	3.702
x1 = 0.9776	8.508	7.001	5.093	3.823

CCCCCCCCCO + CCCO
viscosity [mPa·s], 101 kPa
Conditions	298.15 K	308.15 K	318.15 K
x2 = 0.05	8.682	6.217	4.482
x2 = 0.1	8.263	5.92	4.293
x2 = 0.15	7.846	5.632	4.11
x2 = 0.2	7.432	5.351	3.929
x2 = 0.25	7.022	5.076	3.752
x2 = 0.3	6.618	4.806	3.575
x2 = 0.35	6.22	4.542	3.399
x2 = 0.4	5.83	4.282	3.223
x2 = 0.45	5.447	4.026	3.046
x2 = 0.5	5.073	3.774	2.869
x2 = 0.55	4.708	3.525	2.691
x2 = 0.6	4.352	3.279	2.514
x2 = 0.65	4.005	3.037	2.337
x2 = 0.7	3.668	2.798	2.161
x2 = 0.75	3.34	2.563	1.988
x2 = 0.8	3.022	2.332	1.819
x2 = 0.85	2.712	2.106	1.656
x2 = 0.9	2.412	1.884	1.5
x2 = 0.95	2.12	1.668	1.354

CC(=O)N1CCOCC1 + CCO
viscosity [mPa·s], 101 kPa
Conditions	293.15 K	303.15 K	313.15 K	323.15 K
x1 = 0.0563	1.847	1.495	1.153	0.928
x1 = 0.1288	2.747	2.302	1.832	1.518
x1 = 0.2164	3.689	3.134	2.511	2.096
x1 = 0.2843	4.374	3.728	2.983	2.484
x1 = 0.3147	4.656	3.974	3.174	2.639
x1 = 0.3944	5.318	4.533	3.594	2.966
x1 = 0.4512	5.718	4.858	3.819	3.122
x1 = 0.4957	6.016	5.101	3.983	3.232
x1 = 0.5253	6.179	5.227	4.056	3.269
x1 = 0.5832	6.499	5.472	4.199	3.343
x1 = 0.6341	6.728	5.638	4.275	3.358
x1 = 0.6813	6.984	5.832	4.387	3.413
x1 = 0.7348	7.169	5.948	4.407	3.369
x1 = 0.7921	7.459	6.164	4.522	3.417
x1 = 0.8452	7.653	6.289	4.554	3.434
x1 = 0.9127	8.019	6.569	4.788	3.615
x1 = 0.9734	8.395	6.932	5.046	3.797
